Results taken from US10912780B2, “Heterocyclic compounds useful as anti-bacterial agents and method for production thereof” (Bugworks Research, Inc., priority 2017, dated 2021).
≈ marks a conversion by molar mass, not a printed value. Where “and” joins values, the source holds several entries; their conditions need not be identical. Identical values can stand only once.

Columns and labels:
[1] = test system: P. aeruginosa [ATCC27853]; test: Neutropenic lung infection model in rat; assay type: in vivo; settings: 30 mg/kg, i.v. bolus, neutropenic rat, 24 h post infection
Experimental: The purpose of this study was to evaluate the efficacy of example 15 against P. aeruginosa [ATCC27853], following single dose intravenous infusion doses of 10, 30 and 100 mg/kg in a neutropenic lung infection model in rats
Prior to the start of the infection process, all animals were divided into different groups. All grouped cages of animals were carried to a procedure room, close to a biological safety cabinet. All infections were conducted in a biological safety cabinet, with appropriate personnel protection. Animals were placed into an induction chamber and anaesthesia was induced by exposing the animals to 3-5% Isoflurane in an oxygen flow set at approximately (˜) 1 liter per minute (LPM). Once the animals were in a sufficiently deep plane of anaesthesia as monitored by pedal reflex, they were removed and infected (2). […] A gentle mixing of inoculum between two animals was followed for uniform distribution.
The IV formulation vehicle used for example 15 was 10% of L-ascorbic acid in fresh MilliQ water (w/v) with pH adjusted to ˜4.0 with 1N Sodium hydroxide solution (w/v), and the dose volume was 10 mL/kg. Meropenem was formulated in saline. […] The dose levels of the test Example 15 were 10, 30 and 100 mg/kg.
All the animals in groups were sacrificed at 24 h post infection, as specified in experimental design, by an overdose of CO2 in an appropriate exposure chamber. The group 1 animals were sacrificed at 4 hrs post infection. The euthanized animals were dipped into 70% ethanol for surface decontamination. Entire Lung was aseptically isolated, weighed and placed into 1 mL of sterile CSDB broth, and homogenized (Omni Tip (220 V hand held)). Serial ten-fold dilutions of the lungs homogenates were prepared in sterile CSD broth and 0.05 mL of four dilutions for each tissue was plated onto CSDA agar plates. Bacterial colonies were enumerated following overnight incubation at 37° C. Bacterial densities were estimated as Log10 CFU/g lung. The Mean±SD Log10 CFU/g lung was estimated in each group. Significant differences between group means and control were analyzed by one way ANOVA, followed by a Dunnett's multiple comparison test, using Graphpad Prism at 95% confidence levels.

[2] = test system: E. cloacae clinical strains; test: Antibacterial susceptibility studies (MIC50 and MIC90) with clinical strains, CLSI guidelines; assay type: cell-based
E. coli clinical strains = test: as above; assay type: cell-based
[3] = test system: P. aeruginosa clinical strains; test: as above; assay type: cell-based
E. coli [ATCC25922] = test: Urinary tract infection (UTI) rat model; assay type: in vivo; settings: 30 mg/kg, i.v. bolus, rat UTI, 24 h post infection
Experimental: The purpose of this study is to assess the efficacy of Example 15 against E. coli [ATCC25922] following single dose intravenous infusion doses of 3, 10 and 30 mg/kg in a Urinary Tract Infection Rat Model
Prior to the start of the infection process all animals were divided into different groups. All grouped cages of animals were carried to a procedure room, close to a biological safety cabinet. All infections were conducted in a biological safety cabinet, with appropriate personnel protection. Animals were anaesthetized by intraperitoneal injection of ketamine & xylazine (60+10 mg/kg i.p.) cocktail. Once the animals were in a sufficiently deep plane of anaesthesia as monitored by pedal reflex, the abdominal wall of each rat was shaved with electric clippers and the skin was cleansed with 10% povidine iodine. After a 1.5 to 2 cm lower abdominal wall incision, the abdominal wall muscles were separated with blunt dissection. […] After the replacement of the bladder to its original location, the abdominal muscles were approximated using suture and the skin was closed. The wounds were cleansed using 10% povidine iodine.
The IV formulation vehicle used was 10% of L-ascorbic acid in fresh MilliQ water (w/v) with pH adjusted to 4.0 with 1N Sodium hydroxide solution (w/v), and the dose volume was 10 mL/kg. Meropenem was prepared in MilliQ water and the pH of solution was adjusted to 4.5 using HCl. Four hours post infection, animals were dosed intravenously, as single doses (for test compounds), as a constant rate infusion, under Ketamine 60 mg/kg IP+Xylazine 10 mg/kg IP anesthesia, at a dose volume of 10 ml/kg, at the rate of 0.03 ml/min. The dose levels of the test compounds were 3, 10 and 30 mg/kg. Meropenem was administered as a single bolus dose at a dose volume of 5 ml/kg. All the animals were sacrificed at 24 h post infection, as specified in experimental design, by an overdose of CO2 in an appropriate exposure chamber. The group 1 animals were sacrificed at 4 h post infection.
The euthanized animals were dipped into 70% ethanol for surface decontamination. The organs were removed aseptically; the bladder was cut away near the urethra, and the kidneys were removed by blunt dissection to avoid bleeding. The bladder and each kidney separately were be homogenized in PBS. The CFU per milliliter homogenate of bladder, & kidney were determined after 18 to 24 h of incubation at 37° C.

[4] = test system: K. pneumoniae clinical strains; test: Antibacterial susceptibility studies (MIC50 and MIC90) with clinical strains, CLSI guidelines; assay type: cell-based
[5] = test system: A. baumannii clinical strains; test: as above; assay type: cell-based
[6] = Enterobacter cloacae, E. cloacae clinical strains (88 strains)

Structure (SMILES): C[C@@H](O)[C@H]1C(=O)N2C(C(=O)O)=C(S[C@@H]3CN[C@H](C(=O)N(C)C)C3)[C@H](C)[C@H]12 [Meropenem, reference compound]
- MEAN ± SD (Log 10 CFU/g Lung) [1]: 5.04 ± 0.14 Log 10 CFU/g Lung
- Mean Log 10CFU/g lung reduction (wrt 4 h PI control 5.78 Log10CFU/g lung) [1]: 0.74 Log10CFU/g lung
- Log 10 CFU/g Lung ([1]; individual animals): 5.03 Log 10 CFU/g Lung and 5.18 Log 10 CFU/g Lung and 4.90 Log 10 CFU/g Lung
- MIC50 [2, 6]: 0.25 µg/mL (≈ 0.652 µM)
- MIC90 [2, 6]: 16 µg/mL (≈ 41.7 µM)
- Minimum ([2]; lowest MIC among E. cloacae clinical strains (88 strains), no unit in this line): 0.06
- MIC ATCC25922 (E. coli clinical strains; E. coli reference strain ATCC25922, no unit in this line (MIC50/MIC90 lines: μg/ml)): 0.06 µg/mL (≈ 0.156 µM)
- MIC50 (E. coli clinical strains; Escherichia coli): 0.06 µg/mL (≈ 0.156 µM)
- MIC90 (E. coli clinical strains; Escherichia coli): 4 µg/mL (≈ 10.4 µM)
- Minimum (E. coli clinical strains; lowest MIC among E. coli clinical strains (201 strains; Example 15: 176), no unit in this line): 0.03
- MIC ATCC27853 ([3]; P. aeruginosa reference strain ATCC27853, no unit in this line): 0.5 µg/mL (≈ 1.3 µM)
- MIC50 ([3]; Pseudomonas aeruginosa): 2 µg/mL (≈ 5.22 µM)
- MIC90 ([3]; Pseudomonas aeruginosa): 8 µg/mL (≈ 20.9 µM)
- Minimum ([3]; lowest MIC among P. aeruginosa clinical strains (215 strains; Example 15: 176), no unit in this line): 0.03
- MEAN ± SD (Log10 CFU/g kidneys) (E. coli [ATCC25922]): 4.41 ± 0.70 Log10 CFU/g kidneys
- Mean Log10 CFU/g kidney reduction (wrt 4 h PI control: 6.03 Log10 CFU/g kidneys) (E. coli [ATCC25922]): 1.62 Log10 CFU/g kidneys
- MEAN ± SD (Log 10 CFU/ml Bladder) (E. coli [ATCC25922]; bladder): 4.34 ± 0.32 Log 10 CFU/ml
- Mean Log10 CFU/ml Bladder reduction (wrt 4 h PI control: 6.49 CFU/ml Bladder) (E. coli [ATCC25922]; bladder): 2.15 Log10 CFU/ml
- Log10 CFU/g (Left Kidney) (E. coli [ATCC25922]; individual animals): 4.62 Log10 CFU/g and 4.41 Log10 CFU/g and 5.19 Log10 CFU/g
- Log10 CFU/g (Right Kidney) (E. coli [ATCC25922]; individual animals): 4.83 Log10 CFU/g and 3.13 Log10 CFU/g and 4.28 Log10 CFU/g
- Log 10 CFU/ml Bladder (E. coli [ATCC25922]; individual animals, bladder): 4.43 Log 10 CFU/ml and 4.62 Log 10 CFU/ml and 3.99 Log 10 CFU/ml
- MIC ATCC13883 ([4]; K. pneumoniae reference strain ATCC13883, no unit in this line): 0.06 µg/mL (≈ 0.156 µM)
- MIC50 ([4]; Klebsiella pneumoniae): 1 µg/mL (≈ 2.61 µM)
- MIC90 ([4]; Klebsiella pneumoniae): 16 µg/mL (≈ 41.7 µM)
- Minimum ([4]; lowest MIC among K. pneumoniae clinical strains (211 strains; Example 15: 176), no unit in this line): 0.03
- MIC ATCC19606 ([5]; A. baumannii reference strain ATCC19606, no unit in this line): 0.5 µg/mL (≈ 1.3 µM)
- MIC50 ([5]; Acinetobacter baumannii): 8 µg/mL (≈ 20.9 µM)
- MIC90 ([5]; Acinetobacter baumannii): 32 µg/mL (≈ 83.4 µM)
- Minimum ([5]; lowest MIC among A. baumannii clinical strains (169 strains; Example 15: 132), no unit in this line): 0.03125
